What was measured:
[1] = Peripheral muscarinolytic side effect (saliva/tear secretion, oxotremorine) relative to spasmolytic activity; details: mouse, in vivo, ip
Procedure: (§1) The choice of the dosage depends on the nature and the severity of the disease.
(§2) 3. Muscarinolytic "side effects".
(§3) The compounds to be tested and oxotremorine were administered intraperitoneally to femal DAP-mice at the same instant or, in case of analgesia, also 30 minutes previously.
(§4) Inhibition of the tremors and/or analgesia caused by oxotremorine is a measure of the central muscarinolytic activity, while the inhibition of saliva secretion or tear secretion reflects the peripheral muscarinolytic activity.

[2] = tested on: ileum of the guinea pig; assay: Spasmolytic activity in vivo (effect on the ileum of the guinea pig, contractions induced with intravenous carbachol); details: atropine = 1
Procedure: Effect on the ileum of the guinea pig.
The spasmolytic effect of the compounds was tested on the ilea of urethane-narcotised, empty-stomach guinea pigs of approximately 500 g (Zwagemakers, Arzn. Forsch. 30, 1517 (1980). Contractions of the intestine were induced every 7 minutes with intravenously administered carbachol in a dose of 5 μg per kg of body weight. After constant response had been reached, the test compounds were administered 3 minutes before the next dose of carbachol was given and the protecting effect was studied for 52 minutes. The contractions after administration of the test compounds were expressed as a percentage of the average of two control values. The average percentage of inhibition was calculated throughout the 52 minutes from the region under the curve. The maximum percentage of inhibition and the duration of the spasmolytic effect were also determined. The spasmolytic effect was considered to be finished when two successive contractions were 20% or less of the control value.

[3] = Central muscarinolytic side effect (tremors/analgesia, oxotremorine) relative to spasmolytic activity; details: mouse, in vivo, ip
Procedure: as §1, §2, §3, §4

`CCN(CCCC(=O)C1CCCCC1)C(C)Cc1ccc(OC)cc1` (stereo not shown) [Secoverine] gave a selectivity ratio [1] of 50, a Spasm. activ. [2] of 0.6 and a selectivity ratio [3] of 2.
With `CN1[C@@H]2CC[C@H]1C[C@@H](OC(=O)C(CO)c1ccccc1)C2` (stereo partly shown) [Atropine] the Spasm. activ. [2] was 1.

— patent publication US4889849A, “Spasmolytically active tertiary amine derivatives” (Duphar International Research B.V., priority 1984, dated 1989)
